Values of other authors as cited in patent EP0303681B1 (priority 1987, dated 1988).

## Sc1ncnc2nc[nH]c12 [6 MP, 6-mercaptopurine]
Alkaline solutions
  solubility in alkaline solutions: soluble
Hot ethanol
  solubility in hot ethanol: soluble
water
  solubility in water: insoluble
